Experiments:
[1] = system: Triticum aestivum variety “AC Harvest”; test: Growth chamber trial, grain yield after post-emergence spray application; format: in vivo; settings: for Relative, %: grain yield relative to UTC = 100; for Relative, % / Difference (%) vs. UTC: 10 gai/ha of each active ingredient (mixtures 10 + 10); for Difference (%) vs. UTC: grain yield; for Grain Yield, g/plant: growth chamber, spray at BBCH 56-61, 10 gai/ha of each active ingredient (mixtures 10 + 10)
Corn = test: Field trial, corn grain yield after post emergence application; format: in vivo; settings: for Relative, %: yield relative to UTC = 100
Text: (§1) The trials have been carried out under natural field conditions (plot trials, 10 sqm, 4 replications) with spray applications using 100-300 l/water per hectare.
(§2) The applications have been done as post emergence treatments straight (alone, 1 application). The growth stage of the crops species at the time of application are reported in the single tables as well as the dose rates of the active ingredients applied.
(§3) The trials have been harvested after crops reached the full maturity. After the harvest, the total weights of grains (kernels/seeds) per plot were taken. Afterwards the seed samples were dried to 14% moisture. The freshweight were calculated to a uniform dry weight of 86% for all harvested plots. The results are reported as means over 4 replications per treatment based on 14% moisture resp. 86% dry weight. The time interval (in days) between applications and harvest time are also described in the single tables.

Spring wheat = test: Field trial, spring wheat grain yield after post emergence application; format: in vivo; settings: 100 gai/ha; for Relative, %: yield relative to UTC = 100
Text: as §1, §2, §3

[2] = system: Oil seed rape (spring; Canola); test: Field trial, oil seed rape grain yield after post emergence application; format: in vivo; settings: 100 gai/ha
Text: as §1, §2, §3

[3] = system: Triiticum aestivum seeds (TRZAS); test: Seed treatment trial, grain yield of plants from treated seeds; format: in vivo, Triticum aestivum
[4] = 20 gai/ha, mid-post, harvest 76 days after application
[5] = 100 gai/ha, GS 33, harvest 84 days after application
[6] = GS 39, harvest 80 days after application
[7] = GS 55, harvest 72 days after application
[8] = grain yield relative to UTC = 100, 1 gai/kg seed
[9] = 250 gai/ha, mid-post, harvest 76 days after application

SMILES | Relative, % [1] [%] | Difference (%) vs. UTC [1] | Grain Yield, g/plant [1] [g/plant] | Difference (%) vs. UTC ([3]; 1 gai/kg seed) | Grain Yield, g/plant ([3]; 1 gai/kg seed) [g/plant] | Relative, % [3, 8] [%] | also measured
CO/C=C(/C(=O)OC)c1ccccc1Oc1cc(Oc2ccccc2C#N)ncn1 [Azoxystrobin, azoxystrobin] | 115.1 | +15.1% | 1.22 |  |  |  | 
CCCCCC(C)OC(=O)COc1ccc(Cl)c2cccnc12 (stereo not drawn) [CQM, 1-methylhexyl (5-chloro-8-quinolinoxy)acetate] | 103.7 | +3.7% | 1.10 | +9.4% | 1.97 | 109.4 | Difference (%) vs. UTC (Corn; [4]): +2.4%; Yield, dt/ha (Corn; [4]): 94 dt/ha; Difference (%) vs. UTC (Corn; [5]): +9.0%; Yield, dt/ha (Corn; 100 gai/ha, post emergence, stem elongation stage (GS 33), harvest 84 days after application): 52.7 dt/ha; Relative, % (Corn; [4]): 102.4%; Relative, % (Corn; [5]): 108.0%; Difference (%) vs. UTC (Spring wheat; [6]): +9.0%; Difference (%) vs. UTC (Spring wheat; [7]): +7.0%; Yield, dt/ha (Spring wheat; late post emergence, ear heading (GS 55), harvest 72 days after application): 40.2 dt/ha; Yield, dt/ha (Spring wheat; post emergence, flag leaf stage (GS 39), harvest 80 days after application): 41.7 dt/ha; Relative, % (Spring wheat; [6]): 109.0%; Relative, % (Spring wheat; [7]): 107.0%; Difference (%) vs. UTC ([2]; GS 60, harvest 49 days after application): +4.0%; Yield, dt/ha ([2]; late post emergence, begin of flowering (GS 60), harvest 49 days after application): 18.4 dt/ha; Relative, % ([2]; yield relative to UTC = 100, GS 60, harvest 49 days after application): 104.0%; Difference (%) vs. UTC ([3]; 0.5 gai/kg seed): +14.4%; Grain Yield, g/plant ([3]; 0.5 gai/kg seed): 2.06 g/plant; Relative, % ([3]; grain yield relative to UTC = 100, 0.5 gai/kg seed): 114.4%
CN/C(=N\[N+](=O)[O-])NCc1cnc(Cl)s1 [Clothianidin, clothianidin] | 112.3 | +12.3% | 1.19 |  |  |  | 
CC1COC(Cn2cncn2)(c2ccc(Oc3ccc(Cl)cc3)cc2Cl)O1 (stereo not drawn) [Difenoconazole, difenoconazole] | 96.2 | −3.8% | 1.02 | −10% | 1.62 | 90 | 
N#Cc1nn(-c2c(Cl)cc(C(F)(F)F)cc2Cl)c(N)c1[S+]([O-])C(F)(F)F (stereo not drawn) [Fipronil, fipronil] | 112.3 | +12.3% | 1.19 |  |  |  | 
N#Cc1c[nH]cc1-c1cccc2c1OC(F)(F)O2 [Fludioxonil, fludioxonil] |  |  |  | +14.4% | 2.06 | 114.4 | 
OC(Cc1ccccc1Cl)(Cn1nc[nH]c1=S)C1(Cl)CC1 (stereo not drawn) [Prothioconazole, prothioconazole] | 96.2 | −3.8% | 1.02 |  |  |  | 
COC(=O)N(OC)c1ccccc1COc1ccn(-c2ccc(Cl)cc2)n1 [Pyraclostrobin, pyraclostrobin] | 117.0 | +17.0% | 1.24 |  |  |  | Difference (%) vs. UTC (Corn; [9]): −15.2%; Yield, dt/ha (Corn; [9]): 78 dt/ha; Relative, % (Corn; [9]): 84.8%
CON=C(C(=O)OC)c1ccccc1CON=C(C)c1cccc(C(F)(F)F)c1 [Trifloxystrobin, trifloxystrobin] | 105.7 | +5.7% | 1.12 |  |  |  | 
O=[N+]([O-])NC1=NCCN1Cc1ccc(Cl)nc1 [lmidacloprid, imidacloprid] | 107.5 | +7.5% | 1.14 |  |  |  | 
COCC(=O)N(c1c(C)cccc1C)C(C)C(=O)OC (stereo not drawn) [metalaxyl] | 107.5 | +7.5% | 1.14 | −15.6% | 1.52 | 84.4 | 

Source: patent publication US9963431B2, “Use of quinoline derivatives for improving plant yield” (BAYER CROPSCIENCE AG, priority 2013, dated 2018)
